In patent US10040781B2, “Tank-binding kinase inhibitor compounds” (Gilead Sciences, Inc., priority 2014, dated 2018):
Like-named read-outs stand apart in the source and are kept apart here.

Columns and labels:
IKKε = IKKε (Homo sapiens (Human), UniProt Q14164); assay: IKKε TR-FRET enzymatic assay; assay type: biochemical; conditions: read-out: IKKe IC50
TBK1 = TBK1 (Homo sapiens (Human), UniProt Q9UHD2); assay: TBK1 TR-FRET enzymatic assay;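 further: phosphorylation of a biotinylated Ser/Thr peptide by purified full-length recombinant TBK1, read by TR-FRET after 240 min at 25 °C, IC50 is the geometric mean of at least four runs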
hJAK2 = hJAK2 (Homo sapiens (Human), UniProt O60674); assay: hJAK2 LANCE TR-FRET enzymatic assay; assay type: biochemical; conditions: read-out: JAK2 IC50
[1] = TR-FRET, 2×Km ATP, geometric mean of minimum four determinations

Sequence of hJAK2 (O60674 whole entry): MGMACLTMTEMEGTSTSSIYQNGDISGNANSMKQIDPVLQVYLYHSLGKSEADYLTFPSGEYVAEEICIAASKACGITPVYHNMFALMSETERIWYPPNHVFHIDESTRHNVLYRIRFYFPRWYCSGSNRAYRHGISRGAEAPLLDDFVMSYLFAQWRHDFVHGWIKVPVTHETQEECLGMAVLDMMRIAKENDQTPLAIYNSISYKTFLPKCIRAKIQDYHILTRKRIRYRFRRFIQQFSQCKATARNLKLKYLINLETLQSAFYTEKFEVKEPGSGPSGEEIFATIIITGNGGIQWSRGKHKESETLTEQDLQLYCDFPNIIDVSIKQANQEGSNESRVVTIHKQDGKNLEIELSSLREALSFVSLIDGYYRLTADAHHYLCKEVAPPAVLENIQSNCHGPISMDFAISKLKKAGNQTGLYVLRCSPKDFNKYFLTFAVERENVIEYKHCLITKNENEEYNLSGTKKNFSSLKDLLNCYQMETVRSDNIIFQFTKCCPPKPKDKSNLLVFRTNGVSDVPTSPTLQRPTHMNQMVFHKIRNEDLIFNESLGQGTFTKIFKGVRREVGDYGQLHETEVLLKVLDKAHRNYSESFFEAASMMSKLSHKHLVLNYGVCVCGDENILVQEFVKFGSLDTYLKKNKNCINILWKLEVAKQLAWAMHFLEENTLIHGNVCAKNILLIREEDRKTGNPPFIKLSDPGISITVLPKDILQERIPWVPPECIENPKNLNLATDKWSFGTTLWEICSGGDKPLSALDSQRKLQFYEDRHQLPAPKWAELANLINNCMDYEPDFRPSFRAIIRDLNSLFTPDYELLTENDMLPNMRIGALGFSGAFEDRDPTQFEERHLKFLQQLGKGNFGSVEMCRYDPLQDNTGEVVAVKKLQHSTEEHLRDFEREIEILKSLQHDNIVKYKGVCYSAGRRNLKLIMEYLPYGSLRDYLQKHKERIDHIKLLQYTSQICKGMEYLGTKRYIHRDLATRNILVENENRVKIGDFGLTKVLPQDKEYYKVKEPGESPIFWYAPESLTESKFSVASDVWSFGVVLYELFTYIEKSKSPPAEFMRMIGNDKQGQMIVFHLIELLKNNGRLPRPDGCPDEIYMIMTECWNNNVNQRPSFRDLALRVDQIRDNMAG
Sequence of TBK1 (Q9UHD2 whole entry): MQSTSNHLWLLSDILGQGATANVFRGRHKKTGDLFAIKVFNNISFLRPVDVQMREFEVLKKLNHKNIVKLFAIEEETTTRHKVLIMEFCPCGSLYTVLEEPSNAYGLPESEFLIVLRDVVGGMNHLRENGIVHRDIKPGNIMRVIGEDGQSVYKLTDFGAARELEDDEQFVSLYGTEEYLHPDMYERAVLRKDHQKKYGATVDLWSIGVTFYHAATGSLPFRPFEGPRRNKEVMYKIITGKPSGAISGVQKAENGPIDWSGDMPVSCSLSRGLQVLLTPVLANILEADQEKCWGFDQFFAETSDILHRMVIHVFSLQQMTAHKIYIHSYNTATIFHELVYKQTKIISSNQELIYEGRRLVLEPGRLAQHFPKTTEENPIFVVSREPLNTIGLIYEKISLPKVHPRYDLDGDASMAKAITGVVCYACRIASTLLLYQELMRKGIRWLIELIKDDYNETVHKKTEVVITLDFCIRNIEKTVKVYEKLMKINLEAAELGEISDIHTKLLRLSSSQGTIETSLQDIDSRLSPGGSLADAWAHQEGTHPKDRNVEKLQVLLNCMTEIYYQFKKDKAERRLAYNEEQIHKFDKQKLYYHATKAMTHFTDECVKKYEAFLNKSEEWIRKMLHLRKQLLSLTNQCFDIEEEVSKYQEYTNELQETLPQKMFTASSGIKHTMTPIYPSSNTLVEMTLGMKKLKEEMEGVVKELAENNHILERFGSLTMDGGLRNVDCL
Sequence of IKKε (Q14164 whole entry): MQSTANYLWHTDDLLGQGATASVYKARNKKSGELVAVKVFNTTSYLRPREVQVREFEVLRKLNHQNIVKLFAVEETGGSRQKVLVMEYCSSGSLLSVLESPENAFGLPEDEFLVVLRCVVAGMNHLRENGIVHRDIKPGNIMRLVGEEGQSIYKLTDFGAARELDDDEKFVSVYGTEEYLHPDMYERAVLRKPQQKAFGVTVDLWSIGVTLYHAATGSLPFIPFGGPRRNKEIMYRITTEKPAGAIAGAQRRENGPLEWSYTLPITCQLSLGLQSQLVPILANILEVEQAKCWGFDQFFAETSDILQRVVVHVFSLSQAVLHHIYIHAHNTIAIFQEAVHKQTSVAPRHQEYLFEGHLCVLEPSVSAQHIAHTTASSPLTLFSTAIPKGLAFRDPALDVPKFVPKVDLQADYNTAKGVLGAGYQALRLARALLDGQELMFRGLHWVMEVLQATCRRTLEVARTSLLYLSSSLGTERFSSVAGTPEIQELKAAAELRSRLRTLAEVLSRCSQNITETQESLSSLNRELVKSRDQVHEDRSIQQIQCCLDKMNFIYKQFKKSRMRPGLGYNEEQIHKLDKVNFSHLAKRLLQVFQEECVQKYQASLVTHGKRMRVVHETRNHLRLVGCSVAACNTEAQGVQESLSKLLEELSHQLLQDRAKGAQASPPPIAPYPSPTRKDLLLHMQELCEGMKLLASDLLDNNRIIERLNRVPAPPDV

| SMILES | IC50 (IKKε) [nM] | IC50 (TBK1) [nM] | IC50 (hJAK2) [nM] | IC50 (IKKε; [1]) [nM] |
| --- | --- | --- | --- | --- |
| COc1cc(Nc2ncnc(-c3ccc(N4C[C@H](O)CCC4=O)c(C#N)c3)n2)ccc1N1CCN(C2COC2)CC1 [Example 399, (R)-2-(5-hydroxy-2-oxopiperidin-1-yl)-5-(4-((3-methoxy-4-(4-(oxetan-3-yl)piperazin-1-yl)phenyl)amino)-1,3,5-triazin-2-yl)benzonitrile] | – | 152 | 174 | 270 |
| C[C@H](O)C(=O)N1CC[C@H](Oc2ccc(-c3ncnc(Nc4ccc(O[C@H]5CCN(C)C[C@H]5F)cc4)n3)cc2C#N)[C@H](F)C1 [Example 400, 2-(((3R,4S)-3-fluoro-1-((S)-2-hydroxypropanoyl)piperidin-4-yl)oxy)-5-(4-((4-(((3R,4S)-3-fluoro-1-methylpiperidin-4-yl)oxy)phenyl)amino)-1,3,5-triazin-2-yl)benzonitrile] | – | 3 | ≥ 1000 | 1 |
| COCC(=O)N1CC[C@H](Oc2ccc(-c3ncnc(Nc4ccc(N5CCN(C6COC6)CC5)c(F)c4)n3)cc2C#N)[C@H](F)C1 [Example 402, 2-(((3R,4S)-3-fluoro-1-(2-methoxyacetyl)piperidin-4-yl)oxy)-5-(4-((3-fluoro-4-(4-(oxetan-3-yl)piperazin-1-yl)phenyl)amino)-1,3,5-triazin-2-yl)benzonitrile] | – | 3 | ≥ 1000 | 3 |
| C[C@@H](O)C(=O)N1C[C@@H](F)[C@@H](Oc2ccc(-c3ncnc(Nc4ccc(N5CCN(C6COC6)CC5)cc4)n3)cc2C#N)C[C@@H]1C [Example 412, 2-(((2S,4S,5R)-5-fluoro-1-((R)-2-hydroxypropanoyl)-2-methylpiperidin-4-yl)oxy)-5-(4-((4-(4-(oxetan-3-yl)piperazin-1-yl)phenyl)amino)-1,3,5-triazin-2-yl)benzonitrile] | – | 43 | ≥ 1000 | 202 |

Continued by falling IC50 (TBK1), values first:

| IC50 (IKKε) [nM] | IC50 (TBK1) [nM] | IC50 (hJAK2) [nM] | IC50 (IKKε; [1]) [nM] | SMILES |
| --- | --- | --- | --- | --- |
| – | 165 | ≥ 1000 | 165 | CN1C(=O)CC[C@H]1C(=O)N1CC[C@H](Oc2ccc(-c3ncnc(Nc4ccc(N5CCN(C6COC6)CC5)cc4)n3)cc2C#N)[C@H](F)C1 [Example 407, 2-(((3R,4S)-3-fluoro-1-((S)-1-methyl-5-oxopyrrolidine-2-carbonyl)piperidin-4-yl)oxy)-5-(4-((4-(4-(oxetan-3-yl)piperazin-1-yl)phenyl)amino)-1,3,5-triazin-2-yl)benzonitrile] |
| – | 86 | ≥ 1000 | 119 | CN1C(=O)CC[C@H]1C(=O)N1CC[C@H](Oc2ccc(-c3ncnc(Nc4ccc(N5CCN(C6COC6)CC5)c(F)c4)n3)cc2C#N)[C@H](F)C1 [Example 408, 2-(((3R,4S)-3-fluoro-1-((S)-1-methyl-5-oxopyrrolidine-2-carbonyl)piperidin-4-yl)oxy)-5-(4-((3-fluoro-4-(4-(oxetan-3-yl)piperazin-1-yl)phenyl)amino)-1,3,5-triazin-2-yl)benzonitrile] |
| 1 | 3 | 763 | – | CN1CC[C@H](Oc2ccc(Nc3ncnc(-c4ccc(O[C@H]5CCN(C(=O)[C@@H](O)CO)C[C@H]5F)c(C#N)c4)n3)cc2)[C@H](F)C1 [Example 398, 2-(((3R,4S)-1-((S)-2,3-dihydroxypropanoyl)-3-fluoropiperidin-4-yl)oxy)-5-(4-((4-(((3R,4S)-3-fluoro-1-methylpiperidin-4-yl)oxy)phenyl)amino)-1,3,5-triazin-2-yl)benzonitrile] |
| – | 3 | 109 | 2 | N#Cc1cc(-c2ncnc(Nc3ccc(N4CCN(C5COC5)CC4)cc3)n2)ccc1O[C@H]1CCN(C(=O)c2cccc(=O)[nH]2)C[C@H]1F [Example 413, 2-(((3R,4S)-3-fluoro-1-(6-oxo-1,6-dihydropyridine-2-carbonyl)piperidin-4-yl)oxy)-5-(4-((4-(4-(oxetan-3-yl)piperazin-1-yl)phenyl)amino)-1,3,5-triazin-2-yl)benzonitrile] |
